These results are taken from PubChem BioAssay AID1645871.

For this series the following is noted: pampa; pH 5.0; 30.0 min; 50.0 µM.
In general, Papp refers to a coefficient for how fast a substance crosses the barrier. Higher therefore signals fast passage. Compound `CCN1CCCC1CNC(=O)c1cc(S(=O)(=O)CC)c(N)cc1OC` (stereo unspecified) returned a Papp of 66.3 nm/s.
Consider `CCOC(=O)c1ccc(N2C(=O)c3n[nH]c(-c4cccs4)c3C2c2ccc(OCC)cc2)cc1` (stereo unspecified), for which the Papp amounted to 4480 nm/s.
Consider `O=C1Nc2ccc(-c3cccc(C(F)(F)F)c3)cc2C(=O)N2CCN(C(=O)COc3ccccc3)C[C@H]12`, for which the Papp came to 8590 nm/s.
The compound `O=C(Nc1ccc(Oc2ccnc3[nH]ccc23)c(F)c1)c1cccn(-c2ccc(F)cc2)c1=O` yielded a Papp of 93.6 nm/s.
In the case of `COc1ccc(-c2nc3sc(CCNC(=O)C(C)(C)C)c(C)n3n2)cc1`, the Papp came out at 6570 nm/s.
Consider `CCN(CCN(C)C)C(=O)C1CCN(S(=O)(=O)c2c(C)noc2/C=C/c2ccccc2F)CC1`, for which the apparent permeability (Papp) came out at 5650 nm/s.
With `Cc1cnc(-c2ccccc2C(C)C)nc1NCc1ccc(-n2ccnn2)cc1` the figure was 6630 nm/s.
`O=C(CCCN1CCC(n2c(=O)[nH]c3ccccc32)CC1)c1ccc(F)cc1`: the Papp came to 982 nm/s.
In turn, `S=c1[nH]c2ccccc2n1CCc1ccccc1` had a Papp of 9030 nm/s.
With `COc1ccc(-n2nc(C3CCCN(C(=O)C4CC4)C3)[nH]c2=O)cc1` (stereo unspecified), the Papp is 1090 nm/s.
With `COc1ccccc1Nc1ccnc(N2CCN(C(=O)c3ccccc3Cl)CC2)n1` the figure was 358 nm/s; with `COC(=O)c1ccc(O)c2ncc(N3CCN(C)CC3)cc12`, 801 nm/s; with `COc1cccc(C(=O)Nc2nc(-c3nnn(-c4ccccc4C(F)(F)F)c3C)ns2)c1`, 8340 nm/s.
Compound `Cc1n[nH]c(C)c1CCc1nc2c3ccccc3nc(SCC(=O)Nc3ccc(F)cc3)n2n1` displayed a Papp of 3830 nm/s.
`O=S(=O)(c1ccccc1)c1nc(-c2ccc(F)cc2)oc1N1CCCCCC1` displayed a Papp greater than 10000 nm/s.
For the compound `CC(NCc1ccc2c(c1)nc(NC(=O)c1ccc(-c3cn[nH]c3)s1)n2CC(C)(C)O)C(C)(C)C` (stereo unspecified), the Papp was found to be 41.6 nm/s.
With `CC(C)Oc1cccc(C2CC(=O)Nc3cc4c(cc32)OCO4)c1` (stereo unspecified) the figure was 7850 nm/s; with `CCN1CCN(c2ncc3c(n2)CCN(Cc2cc(Br)cs2)C3)CC1`, 771 nm/s.
Under `Clc1cccc(COc2cncc(N3CCNCC3)n2)c1` stands 7420 nm/s; under `Cc1cccc(-c2noc([C@@H]3Cc4nc[nH]c4CN3C(=O)CC(C)(C)CC(=O)O)n2)c1`, 467 nm/s.
On to `O=C1Nc2cc(Cl)ccc2Nc2cscc21`, for which the Papp is 633 nm/s.
`COc1ccc(-n2nc(C3CCCN(C(=O)Nc4ccccc4)C3)[nH]c2=O)cc1` (stereo unspecified): the Papp amounted to 3150 nm/s.
`CCOC(=O)c1[nH]c(C)c(CCC(=O)N2CCN(c3cc(C)ccc3C)CC2)c1C` displayed a Papp greater than 10000 nm/s.
Under `Cc1nc(-c2ccccc2)cc([C@H]2CN3CC[C@H]2C[C@@H]3CNC2CCOCC2)n1` stands 130 nm/s; under `Nc1c(C(=O)Nc2ccc(Cl)cc2)sc2nc3c(cc12)N1CCC3CC1`, 1400 nm/s; under `O=C1CCc2cc(S(=O)(=O)Nc3ccc(F)c(Cl)c3)ccc2N1`, 6630 nm/s.
With `O=C(Cc1c[nH]c2ncc(-c3ccc(Cl)cc3)cc12)NCc1cccnc1` the figure was 8180 nm/s; with `CC[C@H]1CN2CCC3CC(OC)C(OC)CC3[C@@H]2C[C@@H]1C[C@H]1NCCC2=C1CC(OC)=C(O)C2` (stereo partly specified), 179 nm/s.
With `OC1(c2ccc(Cl)cc2)CCN(Cc2c[nH]c3ccccc23)CC1` the figure was 4190 nm/s.
For `Cn1c(CN2CCCCC2)nc2cc(NC(=O)c3cccc(Br)c3)ccc21`, the Papp was found to be 1780 nm/s.
As to `O=C(O)c1ccc(N2C(=O)/C(=C/c3ccc(-c4ccc([N+](=O)[O-])cc4)o3)C=C2c2ccccc2)cc1`, the Papp turned out to be 375 nm/s.
Under `COc1ccccc1NC(=O)C1=C(C)Nc2c(C(=O)Nc3cccc(C)c3)cnn2C1c1ccccc1Cl` (stereo unspecified) stands 1560 nm/s; under `Cn1c(=O)c2c(-c3ccc(Br)cc3)n(CCc3ccccc3)cc2n(C)c1=O`, 5910 nm/s.
As to `CC(C)(C)C(=O)N1CCN(c2nccc(Nc3ccccc3Cl)n2)CC1`, the apparent permeability (Papp) turned out to be 8950 nm/s.
`Cc1ccc(C(=O)N2CCc3c(nc4cc(-c5ccccc5)[nH]n4c3=O)C2)cn1` returned a Papp of 12 nm/s.
Turning to `COc1ccc(C(=O)NC2CCCc3c2[nH]c2ccccc32)cc1OC` (stereo unspecified), the apparent permeability (Papp) stood at 2380 nm/s.
For `C=CCc1ccc(O)c(-c2ccc(O)c(CC=C)c2)c1`, the Papp was found to be 4460 nm/s.
With `Cn1nnnc1Sc1ncnc2scc(-c3ccccc3F)c12`, the Papp is 4510 nm/s.
As to `COc1ccc(C(=O)N[C@@H]2CCC[C@@H]2C(=O)N2CCC(Cc3ccccc3)CC2)cc1`, the Papp is greater than 10000 nm/s.
`Cc1ccc2oc3c(c(=O)c2c1)C(c1ccc(O)cc1)N(CCCN(C)C)C3=O` (stereo unspecified): the Papp was determined as 39 nm/s.
`O=C(O)c1ccc(Nc2nc(-c3cc4ccccc4oc3=O)cs2)cc1O` gave a Papp of 742 nm/s.
In turn, `COc1ccc(CN2CCNc3cc(Nc4ccccc4)ncc3C2)cc1` registered a Papp of 1190 nm/s.
For the compound `CN(C)CCOC1=Cc2ccccc2Sc2ccc(Cl)cc21`, the Papp was 8570 nm/s.
`COc1ccc(OC)c(CN2CCNc3cc(Nc4ccccc4)ncc3C2)c1`: the Papp amounted to 23.3 nm/s.
In turn, `O=C(NCCc1cnc[nH]1)c1ccc(-c2ncc3cnc(-c4cccc(F)c4)cn23)cc1` gave a Papp of 50.9 nm/s.
The compound `C[C@]12N[C@H](Cc3ccccc31)c1ccccc12` came in with a Papp of 728 nm/s.
